From patent US20220315895A1, “METHODS OF MAKING OLIGOPOTENT AND UNIPOTENT PRECURSORS” (Transfusion Health, LLC, priority 2019, published 2022) come the findings set out here.

Assay [1] deals with expanded cord blood CD34+ cells, granulocyte (CD15+/CD14−) and monocyte (CD14+/CD15−) lineage. As to the kind of experiment: Myeloid (granulocyte and monocyte) Differentiation Culture after Expansion Culture (Example 38). The class given is cell-based, human. The protocol:
At days 21 and 63, CD34+ enriched cells were placed into Differentiation Cultures, described below.
Differentiation cultures were initiated using Erythroid, Myeloid (granulocyte and monocyte), and Megakaryocyte HemaTox kits from STEMCELL technologies following the manufacturer's instructions. In brief, lineage media was prepared by adding cytokine cocktails for erythrocyte (SCF, IL-3, and EPO), myeloid (i.e. mixed granulocyte/monocyte, SCF, TPO, G-CSF, and GM-CSF) or megakaryocyte (SCF, IL-6, IL-9 and TPO) lineage differentiation to their respective kits' media, then adding approximately 30-100 CD34+ cells for erythroid or myeloid cultures, or 300-1000 CD34+ cells for megakaryoid cultures. Exact cell numbers plated were quantified for later analysis. All incubations for Differentiation Culture took place at 3% oxygen (controlled by nitrogen) and 5% CO2.
Following seven days of erythroid or myeloid cultures, or ten days for megakaryoid cultures, differentiated cell output was quantified using flow cytometry. Erythroid output was quantified using anti-CD71 and anti-CD235a antibodies, and megakaryocyte lineage output was quantified using anti-CD41 and anti-CD42b antibodies. Granulocyte and monocyte lineage outputs were assessed in tandem, using CD14 and CD15 antibodies, with granulocyte lineage cells being CD15+/CD14−, and monocyte lineage cells being CD14+/CD15−.
A number of quantities were calculated to assess the effect of expansion of CD34+ cells in the +Formula I Condition on the output of lineage differentiated cells. “Per-Assayed-CD34+ Cell Output” describes the output of differentiated cells per CD34+ cell placed into Differentiation Culture, and is calculated by dividing the total number of lineage-positive cells by the input CD34+ cell number quantified at Differentiation Culture initiation at day 1, 21, or 63. “Per-expanded-day-1-CD34+ cell output” describes the number of differentiated cells of a given lineage that may be produced from a single CD34+ cell following both Expansion Cell Culture (if expanded) followed by Differentiation Culture, and is calculated by multiplying Per-Assayed-CD34+ Cell Output by the fold expansion of CD34+ cells from day 1 to the day of analysis, either day 21 or day 63. […] We calculated therapeutic units for granulocyte precursors, using 50 billion (5×10^10) cells per dose as a conservative benchmark (Valentini, C. G., Farina, F., Pagano, L., and Teofili, L. (2017). Granulocyte Transfusions: A Critical Reappraisal. Biol. Blood Marrow Transplant. 23, 2034-2041). […]

Assay [2] has as its system CD34+ cells from cord blood. As to the kind of experiment: HSC Expansion Culture, 14 and 21 days (Example 41). It is filed as cell-based, human. The protocol:
CD34+ cells from cord blood were purchased from STEMCELL Technologies.
Primary human CD34+ cells were isolated by the supplier from cord blood samples using positive immunomagnetic separation techniques. Cells from two separate samples of cord blood were thawed, gradually brought to room temperature, then washed.
For both samples, cells were primed with an overnight culture in StemSpan with 100 ng/ml each of FLT3L, TPO, SCF, and IL-6. Eighteen hours later (day 1), cells were counted and immunophenotyped (flow cytometry on an Invitrogen Attune N×T cytometer).
The remainder of cells from both samples were placed into “HSC Expansion Culture” for either 14 days (“14-day expansion”) or 21 days (“21-day expansion”). Numbers of cells placed into HSC Expansion Culture were quantified for “Fold Expansion” calculations described below. […]
During Expansion Culture, portions of cells were passaged to one or more larger flasks (75 cm^2 or 225 cm^2) if density of cells was greater than ≥1e5 cells/ml. […] Numbers of cells seeded were recorded for “Fold Expansion” calculations, described below.
Following 21 days in Expansion Culture, a sample was taken from the 21-day expansion flask for counting and analysis of phenotypes (flow cytometry on an Invitrogen Attune N×T cytometer). […] CD34 purity was verified by flow cytometry and counts were recorded for calculation of Per-Assayed-CD34+ Cell Output, described below. […]

Where [3] appears, read: +Formula I expansion to day 21, then 7 days differentiation.
The mark [4] stands for this setting: +Formula I expansion to day 63, then 7 days differentiation.

As to `CC(C)(C)C(=O)Nc1ccc2c(c1)C(O)c1ccccc1-2` (stereo not drawn) [Compound 1.010], the figures for the “fold increase of per-expanded-day-1-CD34+ cell output, monocyte lineage, over uncultured cells” value in assay [1] (setting [3]) and in assay [1] (setting [4]) were 800 fold and 108,000 fold, respectively. The “fold increase of per-expanded-day-1-CD34+ cell output, total granulocyte lineage, over uncultured cells” value in assay [1] (setting [3]) is 370 fold; in assay [1] (setting [4]), 67,000 fold. Further, the “fold expansion of CD34+ cells” value in assay [2] (+Formula I Condition (Compound 1.010 8 μM), 14 days) is 35 fold; in assay [2] (+Formula I Condition, 21-day expansion), 245 fold.
